Laboratory results: ChEMBL document CHEMBL1201862, “PubChem BioAssay data set” (2004)
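Following 48 hours of exposure in 96-well plates, responses at five concentrations were used to interpolate endpoints linearly. GI50 = concentration required for 50% inhibition of growth.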 Active and inactive are the calls of the source. No stated cut-off is given here; in the data, active = GI50 up to about 1.1 µM and inactive = higher.

What was measured:
Assay in all cases: growth of human tumour cells (NCI), 48 h
K562 = test system: K562
EKVX = test system: EKVX
HOP-62 = test system: HOP-62
XF498 = test system: XF498
SF-295 = test system: SF-295
COLO 205 = test system: COLO 205
OVCAR-4 = test system: OVCAR-4
SN12C = test system: SN12C
A549 = test system: A549
TK-10 = test system: TK-10
NCI-H522 = test system: NCI-H522
HOP-18 = test system: HOP-18
CCRF-CEM = test system: CCRF-CEM
MDA-MB-435 = test system: MDA-MB-435
SNB-78 = test system: SNB-78
MDA-MB-231 = test system: MDA-MB-231
NCI-H460 = test system: NCI-H460
786-0 = test system: 786-0
Hs-578T = test system: Hs-578T
HL-60 = test system: HL-60
DU-145 = test system: DU-145
SR = test system: SR
OVCAR-3 = test system: OVCAR-3
T47D = test system: T47D
M14 = test system: M14
MDA-N = test system: MDA-N
HCT-15 = test system: HCT-15
MOLT-4 = test system: MOLT-4
SF-268 = test system: SF-268
HCC 2998 = test system: HCC 2998
OVCAR-5 = test system: OVCAR-5
SNB-75 = test system: SNB-75
UO-31 = test system: UO-31
CAKI-1 = test system: CAKI-1
HT-29 = test system: HT-29
HCT-116 = test system: HCT-116
SF-539 = test system: SF-539
MCF7 = test system: MCF7
RPMI-8226 = test system: RPMI-8226
SW-620 = test system: SW-620
LOX IMVI = test system: LOX IMVI
UACC-257 = test system: UACC-257
IGROV-1 = test system: IGROV-1
NCI-H23 = test system: NCI-H23
KM12 = test system: KM12
PC-3 = test system: PC-3
RXF 393 = test system: RXF 393
SK-OV-3 = test system: SK-OV-3
DMS-273 = test system: DMS-273
KM-20L2 = test system: KM-20L2
A498 = test system: A498
SK-MEL-5 = test system: SK-MEL-5
HOP-92 = test system: HOP-92
SK-MEL-28 = test system: SK-MEL-28
BT-549 = test system: BT-549
LXFL 529 = test system: LXFL 529
UACC-62 = test system: UACC-62
OVCAR-8 = test system: OVCAR-8
SK-MEL-2 = test system: SK-MEL-2
ACHN = test system: ACHN
DLD-1 = test system: DLD-1
SNB-19 = test system: SNB-19
U-251 = test system: U-251
NCI-H226 = test system: NCI-H226
Malme-3M = test system: Malme-3M
M19-MEL = test system: M19-MEL
NCI/ADR-RES = test system: NCI/ADR-RES

For `CCC/C(=N\NC(=S)N1CC2CCC(CC2)C1)c1ccccn1`, the GI50 (K562) was 5.81 nM (active), the GI50 (EKVX) was 0.0434 µM (active) and the GI50 (HOP-62) was 0.713 µM (active). For the same compound, the GI50 (XF498) was 0.00543 µM (active), the GI50 (SF-295) was 0.399 µM (active) and the GI50 (COLO 205) was 0.0205 µM (active). For the same compound, the GI50 (OVCAR-4) was 0.395 µM (active), the GI50 (SN12C) was 395 nM (active) and the GI50 (A549) was 0.414 µM (active). The GI50 (TK-10) was 0.977 µM (active), the GI50 (NCI-H522) was 282 nM (active) and the GI50 (HOP-18) was 0.149 µM (active). The GI50 (CCRF-CEM) was 18.6 nM (active), the GI50 (MDA-MB-435) was 585 nM (active) and the GI50 (SNB-78) was 0.344 µM (active). For the same compound, the GI50 (MDA-MB-231) was 1.01 µM (active), the GI50 (NCI-H460) was 220 nM (active) and the GI50 (786-0) was 438 nM (active). The GI50 (Hs-578T) was 0.213 µM (active), the GI50 (HL-60) was 9.57 nM (active) and the GI50 (DU-145) was 1.49 µM (inactive). For the same compound, the GI50 (SR) was 49.5 nM (active), the GI50 (OVCAR-3) was 0.254 µM (active) and the GI50 (T47D) was 0.00425 µM (active). For the same compound, the GI50 (M14) was 92.9 nM (active), the GI50 (MDA-N) was 685 nM (active) and the GI50 (HCT-15) was 0.0853 µM. For the same compound, the GI50 (MOLT-4) was 17.9 nM (active), the GI50 (SF-268) was 641 nM (active) and the GI50 (HCC 2998) was 0.344 µM (active). The GI50 (OVCAR-5) was 0.649 µM (active), the GI50 (SNB-75) was 0.185 µM (active) and the GI50 (UO-31) was 1.1 µM (active). For the same compound, the GI50 (CAKI-1) was 1.21 µM (inactive), the GI50 (HT-29) was 43.2 nM (active) and the GI50 (HCT-116) was 35.9 nM (active). The GI50 (SF-539) was 0.594 µM (active), the GI50 (MCF7) was 42 nM (active) and the GI50 (RPMI-8226) was 8.22 nM (active). The GI50 (SW-620) was 56.6 nM (active), the GI50 (LOX IMVI) was 542 nM (active) and the GI50 (UACC-257) was 0.0252 µM (active). For the same compound, the GI50 (IGROV-1) was 0.167 µM (active), the GI50 (NCI-H23) was 0.422 µM (active) and the GI50 (KM12) was 144 nM (active). The GI50 (PC-3) was 0.0906 µM (active), the GI50 (RXF 393) was 0.51 µM (active) and the GI50 (SK-OV-3) was 0.927 µM (active). For the same compound, the GI50 (DMS-273) was 8.39 nM (active), the GI50 (KM-20L2) was 14.5 nM (active) and the GI50 (A498) was 0.708 µM (active). The GI50 (SK-MEL-5) was 0.117 µM (active), the GI50 (HOP-92) was 19 nM (active) and the GI50 (SK-MEL-28) was 0.783 µM (active). The GI50 (BT-549) was 300 nM (active), the GI50 (LXFL 529) was 11.3 nM (active) and the GI50 (UACC-62) was 0.0479 µM (active). For the same compound, the GI50 (OVCAR-8) was 87.7 nM (active), the GI50 (SK-MEL-2) was 0.0813 µM (active) and the GI50 (ACHN) was 131 nM (active). The GI50 (DLD-1) was 0.0118 µM (active), the GI50 (SNB-19) was 0.571 µM (active) and the GI50 (U-251) was 0.181 µM (active). The GI50 (NCI-H226) was 1.82 µM (inactive).
With `CCN(CC)CC(O)CNc1ccc(NCC(O)CCl)c2c1C(=O)c1ccccc1C2=O` (stereo unspecified) the GI50 (K562) was 1270 nM (inactive), the GI50 (EKVX) was 14.9 µM (inactive) and the GI50 (HOP-62) was 10.9 µM (inactive). For the same compound, the GI50 (XF498) was 13.4 µM (inactive), the GI50 (SF-295) was 9.75 µM (inactive) and the GI50 (COLO 205) was 6.47 µM (inactive). The GI50 (OVCAR-4) was 6.52 µM (inactive), the GI50 (SN12C) was 4950 nM (inactive) and the GI50 (A549) was 9.27 µM (inactive). For the same compound, the GI50 (TK-10) was 12.1 µM (inactive), the GI50 (NCI-H522) was 4470 nM (inactive) and the GI50 (HOP-18) was > 10 µM (inactive). The GI50 (CCRF-CEM) was 1060 nM (active), the GI50 (MDA-MB-435) was 4450 nM (inactive) and the GI50 (SNB-78) was 6.7 µM (inactive). For the same compound, the GI50 (MDA-MB-231) was 11.1 µM (inactive), the GI50 (NCI-H460) was 2780 nM (inactive) and the GI50 (786-0) was 2980 nM (inactive). The GI50 (Hs-578T) was 11.6 µM (inactive), the GI50 (HL-60) was 3540 nM (inactive) and the GI50 (DU-145) was 13.4 µM (inactive). The GI50 (SR) was 1050 nM (active), the GI50 (OVCAR-3) was 6.78 µM (inactive) and the GI50 (T47D) was 21.1 µM (inactive). The GI50 (M14) was 3300 nM (inactive), the GI50 (MDA-N) was 5190 nM (inactive) and the GI50 (HCT-15) was 6.1 µM. The GI50 (MOLT-4) was 484 nM (active), the GI50 (SF-268) was 2650 nM (inactive) and the GI50 (HCC 2998) was 7.83 µM (inactive). For the same compound, the GI50 (OVCAR-5) was 15.1 µM (inactive), the GI50 (SNB-75) was 11 µM (inactive) and the GI50 (UO-31) was 4.59 µM (inactive). For the same compound, the GI50 (CAKI-1) was 8.67 µM (inactive), the GI50 (HT-29) was 3310 nM (inactive) and the GI50 (HCT-116) was 1670 nM (inactive). The GI50 (SF-539) was 6.27 µM (inactive), the GI50 (MCF7) was 1560 nM (inactive) and the GI50 (Malme-3M) was 13.4 µM (inactive). The GI50 (RPMI-8226) was 4920 nM (inactive), the GI50 (SW-620) was 1280 nM (inactive) and the GI50 (LOX IMVI) was 478 nM (active). The GI50 (UACC-257) was 6.04 µM (inactive), the GI50 (IGROV-1) was 10 µM (inactive) and the GI50 (NCI-H23) was 6.67 µM (inactive). The GI50 (KM12) was 4150 nM (inactive), the GI50 (PC-3) was 6.47 µM (inactive) and the GI50 (RXF 393) was 12.6 µM (inactive). The GI50 (SK-OV-3) was 18.9 µM (inactive), the GI50 (DMS-273) was 3330 nM (inactive) and the GI50 (KM-20L2) was 4680 nM (inactive). The GI50 (M19-MEL) was 6.82 µM (inactive), the GI50 (A498) was 13.5 µM (inactive) and the GI50 (NCI/ADR-RES) was 2.45 µM (inactive). For the same compound, the GI50 (SK-MEL-5) was 7.48 µM (inactive), the GI50 (HOP-92) was 5580 nM (inactive) and the GI50 (SK-MEL-28) was 11.5 µM (inactive). The GI50 (BT-549) was 2220 nM (inactive), the GI50 (LXFL 529) was 1850 nM (inactive) and the GI50 (UACC-62) was 14.4 µM (inactive). For the same compound, the GI50 (OVCAR-8) was 3850 nM (inactive), the GI50 (SK-MEL-2) was 12.2 µM (inactive) and the GI50 (ACHN) was 2970 nM (inactive). The GI50 (DLD-1) was 8.83 µM (inactive), the GI50 (SNB-19) was 12.2 µM (inactive) and the GI50 (U-251) was 10.8 µM (inactive). The GI50 (NCI-H226) was 9.95 µM (inactive).
